“And” between values parts separate entries of the source, which are not always exact repeats. Equal values may be shown once.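 Five compound concentrations were applied to cells in 96-well plates for 48 hours; endpoints were derived by simple linear interpolation of the resulting dose-response curve. GI50: concentration for 50% inhibition of growth. At the TGI there is no net growth.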
Key:
Experiment in all cases: NCI tumour cell line growth inhibition, 48 h
[1] = tested on: 786-0 renal
[2] = tested on: A498 renal
[3] = tested on: LOX IMVI melanoma
[4] = tested on: MALME-3M melanoma
[5] = tested on: MDA-MB-435
[6] = tested on: MDA-N
[7] = tested on: SR leukemia
[8] = tested on: DLD-1 colon
[9] = tested on: DMS 114 small cell lung
[10] = tested on: DMS 273 small cell lung
[11] = tested on: KM20L2 colon
[12] = tested on: P388 leukemia
[13] = tested on: P388/ADR leukemia
[14] = tested on: SNB-78 CNS
[15] = tested on: XF 498 CNS
[16] = tested on: LXFL 529 NSCLC

| Structure (SMILES) | TGI [1] | TGI [2] | TGI [3] | TGI [4] | TGI [5] | TGI [6] | TGI [7] | GI50 [2] | TGI [8] | TGI [9] | TGI [10] | TGI [11] | TGI [12] | TGI [13] | TGI [14] | TGI [15] | TGI [16] | GI50 [11] | GI50 [4] | GI50 [5] |
| --- | --- | --- | --- | --- | --- | --- | --- | --- | --- | --- | --- | --- | --- | --- | --- | --- | --- | --- | --- | --- |
| CC(=O)NC(CCC(=O)C=[N+]=N)C(=O)O (centres undefined) | > 100 µM | > 100 µM | > 100 µM | > 100 µM | > 100 µM | > 100 µM | > 100 µM |  |  |  |  |  |  |  |  |  |  |  |  |  |
| CC1CCC2(C(=O)O)CCC3(C)C(=CCC4C5(C)CCC(O)C(C)(C)C5CCC43C)C2C1C (centres undefined) | > 100 µM | 23.3 µM and 45.3 µM | 17.2 µM and > 100 µM | 25.6 µM and 28.9 µM | 75.1 µM | 28.2 µM | 59.8 µM | 7.07 µM and 22.6 µM | 17 µM | 21.5 µM | 22 µM | 17.5 µM | 9.48 µM | 17.8 µM | 29.3 µM | 11.7 µM |  |  |  |  |
| CC1CC[C@@]2(OC1)OC1CC3C4CCC5C[C@@H](OC6OC(CO)C(OC7OC(CO)C(O)C(OC8OC(CO)C(O)C(OC9OC(CO)C(O)C(O)C9O)C8O)C7OC7OC(CO)C(O)C(O)C7O)C(O)C6O)[C@H](O)C[C@]5(C)C4CC[C@]3(C)C1[C@@H]2C (some centres undefined) | > 80.5 µM | > 80.5 µM | > 80.5 µM | > 80.5 µM | > 80.5 µM | > 80.5 µM |  |  |  |  |  |  |  |  |  |  |  |  |  |  |
| CNC(=O)SCC(N)C(=O)O (centres undefined) |  | > 100 µM | > 89.3 µM | > 100 µM |  |  |  |  | > 100 µM | > 100 µM | > 100 µM | > 100 µM | 39.1 µM | 58 µM | > 100 µM | > 100 µM |  |  |  |  |
| Cc1[nH]nc(N)c1C(N)=O |  | > 100 µM | > 100 µM | > 100 µM |  |  |  |  | > 100 µM | > 100 µM | > 100 µM | > 100 µM |  |  | > 100 µM | > 100 µM | > 100 µM |  |  |  |
| CC(=O)OC/C=C\Cn1nc(Br)c(=O)[nH]c1=O |  | 34.7 µM | 20.1 µM | 31.1 µM | 29.4 µM | 32 µM | 15.6 µM |  |  |  |  |  |  |  |  |  |  |  |  |  |
| COc1cc(OC)c(/C=C\c2cc(/C=C/c3c(OC)cc(OC)cc3OC)c3ccccc3[n+]2C)c(OC)c1 | 7.56 µM | 14 µM | 18.3 µM | 4.52 µM | 6.43 µM | 8.19 µM |  |  |  |  |  |  |  |  |  |  |  |  |  |  |
| O=C(N/N=C/c1cc(Cl)cc(Cl)c1[O-])c1ccccc1O.O=C(N/N=C/c1cc(Cl)cc(Cl)c1[O-])c1ccccc1O.[Zn+2] |  |  | 14.6 µM | 8.56 µM |  |  | 1.55 µM |  |  |  |  | 5.17 µM |  |  |  |  |  | 2.05 µM | 1.37 µM |  |
| OC1CCOc2ccccc21 (centres undefined) |  |  | > 100 µM | > 100 µM |  |  | > 100 µM |  | > 100 µM | > 100 µM | > 100 µM | > 100 µM |  |  |  | > 100 µM | > 100 µM |  |  |  |
| CCC(=O)c1ccc2[nH]c3c(C)c4c(=O)cc(C)[nH]c4c(C)c3c2c1 | > 100 µM | > 100 µM | > 100 µM | > 100 µM | > 100 µM | > 100 µM | > 100 µM |  |  |  |  |  |  |  |  |  |  |  |  |  |
| NC(=O)CCC(N=C(N)c1csc(C2OC(CO)C(O)C2O)n1)C(=O)O (centres undefined) |  | > 100 µM | > 100 µM | > 100 µM |  |  |  |  | > 100 µM | > 100 µM | > 100 µM | > 100 µM |  |  | > 100 µM | > 100 µM | > 100 µM |  |  |  |
| COC1C=COC2(C)Oc3c(C)c(O)c4c(O)c(c(/C=N/N5CCN(N)CC5)c(O)c4c3C2=O)NC(=O)C(C)=CC=CC(C)C(O)C(C)C(O)C(C)C(OC(C)=O)C1C (centres undefined) | > 100 µM | > 100 µM | > 100 µM | > 100 µM |  |  | > 100 µM |  | > 100 µM | > 100 µM | > 100 µM | > 100 µM |  |  | > 100 µM |  | > 100 µM |  |  |  |
| CCOC(=O)c1c(Cl)nc2ccccc2c1N=[N+]=[N-] |  | > 100 µM | 39.3 µM | > 100 µM | 47.1 µM | 44.2 µM | > 100 µM |  |  |  |  |  |  |  |  |  |  |  |  |  |
| CCCC(=O)NC1CCc2cc(OC)c(OC)c(OC)c2-c2ccc(OC)c(=O)cc21 (centres undefined) | > 100 µM |  | > 100 µM | > 100 µM |  |  |  |  |  |  |  |  |  |  |  |  |  |  |  |  |
| C1=C(c2ccccc2)Nc2nnnn2C1c1ccccc1 (centres undefined) | > 100 µM | > 100 µM | 38.3 µM |  | 47 µM | > 100 µM | 51.3 µM |  |  |  |  |  |  |  |  |  |  |  |  |  |
| O=S(=O)(O)c1ccc(N=Nc2c(O)ccc3cc(Br)ccc23)cc1 | > 100 µM | > 100 µM | > 100 µM | > 100 µM | > 100 µM | > 100 µM | > 100 µM |  |  |  |  |  |  |  |  |  |  |  |  |  |
| S=C1CC(c2ccccc2)Sc2ccccc2N1 (centres undefined) |  |  | > 100 µM | > 100 µM | > 100 µM | > 100 µM | > 100 µM |  |  |  |  |  |  |  |  |  |  |  |  |  |
| [O-][n+]1ccccc1S | > 100 µM | > 100 µM | > 100 µM | 89.1 µM | > 100 µM |  |  |  |  |  |  |  |  |  |  |  |  |  |  | 3.17 µM |
| C/C=C/C1=CC(=O)C(O)C1O (centres undefined) |  | 16.7 µM | 83 µM | 87.4 µM |  |  |  |  | 122 µM | 72.5 µM | 98.9 µM | > 80.9 µM | 141 µM | 113 µM | 173 µM | 45.6 µM |  |  |  |  |
| CC(=O)NC(c1nc2cc(C)c(C)cc2[nH]1)c1nc2cc(C)c(C)cc2[nH]1 |  | 35.4 µM | 59.1 µM | 83.7 µM | 42.3 µM | 48.6 µM |  |  |  |  |  |  |  |  |  |  |  |  |  |  |
